Data on 29 compounds can be found in patent publication US20260092074A1, “Annelated Pyridines as Steroidogenesis Inhibitors, Preparation Method and Use Thereof” (Guangzhou Vinnocent Pharmaceutical Limited, priority 2022, published 2026).

One may read the IC50 as the concentration needed to halve the response being measured. A high value points to a need for much substance.

Structures are written as SMILES.

One experiment deals with T1, human CYP11B1 (Homo sapiens, UniProt P15538).
T1 construct: expressed in transfected cells
T1 sequence (P15538 25-503): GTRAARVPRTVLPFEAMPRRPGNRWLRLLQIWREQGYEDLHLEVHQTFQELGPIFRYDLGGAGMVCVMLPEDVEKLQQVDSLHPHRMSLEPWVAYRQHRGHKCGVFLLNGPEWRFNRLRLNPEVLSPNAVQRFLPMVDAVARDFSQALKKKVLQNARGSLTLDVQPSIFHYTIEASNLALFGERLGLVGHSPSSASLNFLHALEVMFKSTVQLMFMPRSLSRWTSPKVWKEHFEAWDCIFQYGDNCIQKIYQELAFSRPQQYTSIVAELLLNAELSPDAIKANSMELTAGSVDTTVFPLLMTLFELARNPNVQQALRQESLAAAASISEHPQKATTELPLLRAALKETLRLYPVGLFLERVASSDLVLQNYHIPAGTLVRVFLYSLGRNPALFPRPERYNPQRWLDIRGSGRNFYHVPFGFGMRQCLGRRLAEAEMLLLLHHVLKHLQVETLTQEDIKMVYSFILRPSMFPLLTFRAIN
Nature of the experiment: Inhibition of hCYP11B1 in transfected V79 cells. Format: cell-based. As to conditions: hamster V79 cells expressing human CYP11B1; substrate 11-deoxycortisol 200 nM. Put shortly:
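V79 hamster cells stably expressing human CYP11B1 and rat NADPH-P450 reductase were preincubated with compounds for 2 h. 11-Deoxycortisol (200 nM) was then added as substrate for 30 min before ethyl acetate quench. Substrate and product were quantified by LC-MS/MS or HPLC at 260 nm, and IC50 was derived from percent inhibition.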

In another experiment the target is T2, human CYP11B2 (Homo sapiens, UniProt P19099).
T2 construct: expressed in transfected cells
T2 sequence (P19099 25-503): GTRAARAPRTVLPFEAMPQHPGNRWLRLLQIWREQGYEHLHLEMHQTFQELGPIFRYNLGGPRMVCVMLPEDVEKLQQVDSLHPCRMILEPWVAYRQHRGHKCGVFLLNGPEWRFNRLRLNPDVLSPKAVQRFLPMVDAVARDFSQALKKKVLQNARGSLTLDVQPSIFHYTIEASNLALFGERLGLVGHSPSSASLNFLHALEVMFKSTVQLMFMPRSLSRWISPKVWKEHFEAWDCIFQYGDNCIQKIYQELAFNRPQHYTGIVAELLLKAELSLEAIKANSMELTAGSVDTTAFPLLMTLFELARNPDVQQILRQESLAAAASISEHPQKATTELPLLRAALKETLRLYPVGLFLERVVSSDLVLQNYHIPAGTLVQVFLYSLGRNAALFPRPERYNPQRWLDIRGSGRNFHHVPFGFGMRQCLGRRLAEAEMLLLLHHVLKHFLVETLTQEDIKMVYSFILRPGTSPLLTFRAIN
As to the kind of experiment: Inhibition of hCYP11B2 in transfected V79 cells. To be noted: hamster V79 cells expressing human CYP11B2; substrate 11-deoxycorticosterone 200 nM. In kind it is cell-based. In outline:
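Hamster V79 cells stably co-expressing human CYP11B2 and rat NADPH-P450 reductase were pre-incubated with compounds for 2 hours, then given 200 nM 11-deoxycorticosterone for 30 minutes before ethyl acetate quench. Substrate and product were quantified by LC-MS/MS or HPLC at 260 nm, and IC50 was derived from percent inhibition.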

On to `N#Cc1ccc(-c2cncc3c2ccn3C(=O)c2ccccc2[N+](=O)[O-])cc1` [E29, 4-(1-(2-Nitrobenzoyl)-1H-pyrrolo[2,3-c]pyridin-4-yl)benzonitrile], for which the values for the IC50 against human CYP11B1 and against human CYP11B2 were 9 nM and 2.5 nM, respectively.

For the compound `N#Cc1ccc(-c2cncc3c2ccn3C(=O)c2ccc(F)cc2)cc1` [E30, 4-(1-(4-Fluorobenzoyl)-1H-pyrrolo[2,3-c]pyridin-4-yl)benzonitrile], the IC50 on human CYP11B1 came to 11 nM; against human CYP11B2 it was 0.1 nM.

Turning to `O=C(c1ccc(F)cc1)n1ccc2c(-c3cc4ccccc4s3)cncc21` [E31, (4-(Benzo[b]thiophen-2-yl)-1H-pyrrolo[2,3-c]pyridin-1-yl)(4-fluorophenyl)methanone], the values for the IC50 against human CYP11B1 and against human CYP11B2 were 635 nM and 10 nM, respectively.

Regarding `O=C(c1ccc(F)cc1)n1ccc2c(-c3cc4ccccc4o3)cncc21` [E32, (4-(Benzofuran-2-yl)-1H-pyrrolo[2,3-c]pyridin-1-yl)(4-fluorophenyl)methanone], the results for the IC50 against human CYP11B1 and at human CYP11B2 were 269 nM and 13 nM, respectively.

With `O=C(c1ccc(F)cc1)n1ccc2c(-c3ccc4occc4c3)cncc21` [E33, (4-(Benzofuran-5-yl)-1H-pyrrolo[2,3-c]pyridin-1-yl)(4-fluorophenyl)methanone], the IC50 on human CYP11B1 was determined as 673 nM; at human CYP11B2 it was 32 nM.

Take `O=C(c1ccc(F)cc1)n1ccc2c(-c3cc4ccccc4[nH]3)cncc21` [E34, (4-(1H-Indol-2-yl)-1H-pyrrolo[2,3-c]pyridin-1-yl)(4-fluorophenyl)methanone]: the results for the IC50 on human CYP11B1 and against human CYP11B2 were 375 nM and 5 nM, respectively.

As for `Cn1ncc2ccc(-c3cncc4c3ccn4C(=O)c3ccc(F)cc3)cc21` [E35, (4-Fluorophenyl)(4-(1-methyl-1H-indazol-6-yl)-1H-pyrrolo[2,3-c]pyridin-1-yl)methanone], the figures for the IC50 at human CYP11B1 and on human CYP11B2 were 857 nM and 17 nM, respectively.

With `O=C(c1ccc(F)cc1)n1ccc2c(-c3ccc4ncsc4c3)cncc21` [E36, (4-(Benzo[d]thiazol-6-yl)-1H-pyrrolo[2,3-c]pyridin-1-yl)(4-fluorophenyl)methanone], the IC50 against human CYP11B1 is 1980 nM; against human CYP11B2, 29 nM.

Take `O=C(c1ccc(F)cc1)n1ccc2c(-c3ccc4nccn4c3)cncc21` [E37, (4-Fluorophenyl)(4-(imidazo[1,2-a]pyridin-6-yl)-1H-pyrrolo[2,3-c]pyridin-1-yl)methanone]: the IC50 against human CYP11B1 turned out to be 455 nM; against human CYP11B2 it was 0.6 nM.

With `O=C(c1ccc(F)cc1)n1ccc2c(-c3ccc4ncoc4c3)cncc21` [E38, (4-(Benzo[d]oxazol-6-yl)-1H-pyrrolo[2,3-c]pyridin-1-yl)(4-fluorophenyl)methanone], the IC50 came out at 49 nM on human CYP11B1 and 8 nM on human CYP11B2.

Turning to `O=C(c1ccc(F)cc1)n1ccc2c(-c3ccn4ccnc4c3)cncc21` [E39, (4-Fluorophenyl)(4-(imidazo[1,2-a]pyridin-7-yl)-1H-pyrrolo[2,3-c]pyridin-1-yl)methanone], the IC50 came out at 678 nM on human CYP11B1 and 12 nM against human CYP11B2.

Regarding `Cn1c(=O)c(=O)[nH]c2cncc(-c3ccc(C#N)cc3)c21` [N1, 4-(1-Methyl-2,3-dioxo-1,2,3,4-tetrahydropyrido[3,4-b]pyrazin-8-yl)benzonitrile], the IC50 was 409 nM on human CYP11B1 and 372 nM on human CYP11B2.

For `Cn1c(=O)c(=O)[nH]c2cncc(-c3ccc(F)cc3)c21` [N2, 8-(4-Fluorophenyl)-1-methyl-1,4-dihydropyrido[3,4-b]pyrazine-2,3-dione], the IC50 on human CYP11B1 was 746 nM; on human CYP11B2, 593 nM.

Consider `CN1CCNc2cncc(-c3ccc(C#N)cc3)c21` [N3, 4-(1-Methyl-1,2,3,4-tetrahydropyrido[3,4-b]pyrazin-8-yl)benzonitrile], for which the IC50 against human CYP11B1 worked out at 394 nM; against human CYP11B2, 311 nM.

As for `CN1CCN(S(=O)(=O)c2ccc(C#N)cc2)c2cncc(-c3ccc(C#N)cc3)c21` [N4, 4-((8-(4-Cyanophenyl)-1-methyl-2,3-dihydropyrido[3,4-b]pyrazin-4 (1H)-yl)sulfonyl)benzonitrile], the IC50 on human CYP11B1 is 5.2 nM; against human CYP11B2, 0.6 nM.

In the case of `CN1CCN(C(=O)c2ccc(F)cc2)c2cncc(-c3ccc(C#N)cc3)c21` [N5, 4-(4-(4-Fluorobenzoyl)-1-methyl-1,2,3,4-tetrahydropyrido[3,4-b]pyrazin-8-yl)benzonitrile], the values for the IC50 on human CYP11B1 and at human CYP11B2 were 48 nM and 7.8 nM, respectively.

For `Cn1cnc2cncc(-c3ccc(C#N)cc3)c21` [N6, 4-(1-Methyl-1H-imidazo[4,5-c]pyridin-7-yl)benzonitrile], the IC50 on human CYP11B1 was determined as 661 nM; on human CYP11B2, 655 nM.

Consider `N#Cc1ccc(-c2cncc3ncn(C4CC4)c23)cc1` [N7, 4-(1-Cyclopropyl-1H-imidazo[4,5-c]pyridin-7-yl)benzonitrile], for which the IC50 on human CYP11B1 came out at 453 nM; at human CYP11B2, 679 nM.

On to `N#Cc1ccc(-c2cncc3c2OCCN3S(=O)(=O)c2ccccc2)cc1` [O1, 4-(4-(Phenylsulfonyl)-3,4-dihydro-2H-pyrido[4,3-b][1,4]oxazin-8-yl)benzonitrile], for which the half-inhibitory concentration (IC50) was 0.22 nM at human CYP11B1 and 0.16 nM against human CYP11B2.

For the compound `N#Cc1ccc(-c2cncc3c2OCCN3S(=O)(=O)c2ccc(F)cc2)cc1` [O2, 4-(4-((4-Fluorophenyl)sulfonyl)-3,4-dihydro-2H-pyrido[4,3-b][1,4]oxazin-8-yl)benzonitrile], the values for the 50% inhibitory concentration (IC50) on human CYP11B1 and on human CYP11B2 were 0.56 nM and 0.13 nM, respectively.

With `N#Cc1ccc(-c2cncc3c2OCCN3S(=O)(=O)c2cccc(F)c2)cc1` [O3, 4-(4-((3-Fluorophenyl)sulfonyl)-3,4-dihydro-2H-pyrido[4,3-b][1,4]oxazin-8-yl)benzonitrile], the IC50 at human CYP11B1 is 0.1 nM; at human CYP11B2, 0.14 nM.

For `Cc1ccc(S(=O)(=O)N2CCOc3c(-c4ccc(C#N)cc4)cncc32)cc1` [O4, 4-(4-Tosyl-3,4-dihydro-2H-pyrido[4,3-b][1,4]oxazin-8-yl)benzonitrile], the IC50 against human CYP11B1 and at human CYP11B2 was 0.1 nM each time.

With `Cc1cccc(S(=O)(=O)N2CCOc3c(-c4ccc(C#N)cc4)cncc32)c1` [O5, 4-(4-(m-Tolylsulfonyl)-3,4-dihydro-2H-pyrido[4,3-b][1,4]oxazin-8-yl)benzonitrile], the IC50 was 0.48 nM against human CYP11B1 and 0.23 nM against human CYP11B2.

As to `N#Cc1ccc(-c2cncc3c2OCCN3S(=O)(=O)c2ccc(Cl)cc2)cc1` [O6, 4-(4-((4-Chlorophenyl)sulfonyl)-3,4-dihydro-2H-pyrido[4,3-b][1,4]oxazin-8-yl)benzonitrile], the values for the IC50 at human CYP11B1 and against human CYP11B2 were 0.66 nM and 0.41 nM, respectively.

In the case of `N#Cc1ccc(-c2cncc3c2OCCN3S(=O)(=O)c2cccc(Cl)c2)cc1` [O7, 4-(4-((3-Chlorophenyl)sulfonyl)-3,4-dihydro-2H-pyrido[4,3-b][1,4]oxazin-8-yl)benzonitrile], the IC50 at human CYP11B1 is 0.12 nM; against human CYP11B2, 0.47 nM.

With `COc1ccc(S(=O)(=O)N2CCOc3c(-c4ccc(C#N)cc4)cncc32)cc1` [O8, 4-(4-((4-Methoxyphenyl)sulfonyl)-3,4-dihydro-2H-pyrido[4,3-b][1,4]oxazin-8-yl)benzonitrile], the IC50 on human CYP11B1 and at human CYP11B2 was 0.02 nM each time.

Take `N#Cc1ccc(-c2cncc3c2OCCN3S(=O)(=O)c2ccc([N+](=O)[O-])cc2)cc1` [O9, 4-(4-((4-Nitrophenyl)sulfonyl)-3,4-dihydro-2H-pyrido[4,3-b][1,4]oxazin-8-yl)benzonitrile]: the IC50 came out at 1.1 nM on human CYP11B1 and 0.11 nM at human CYP11B2.

Regarding `N#Cc1ccc(-c2cncc3c2OCCN3S(=O)(=O)c2cccc([N+](=O)[O-])c2)cc1` [O10, 4-(4-((3-Nitrophenyl)sulfonyl)-3,4-dihydro-2H-pyrido[4,3-b][1,4]oxazin-8-yl)benzonitrile], the IC50 is 2.8 nM on human CYP11B1 and 0.41 nM at human CYP11B2.

In the case of `N#Cc1ccc(-c2cncc3c2OCCN3S(=O)(=O)c2ccc(C(F)(F)F)cc2)cc1` [O11, 4-(4-((4-(Trifluoromethyl)phenyl)sulfonyl)-3,4-dihydro-2H-pyrido[4,3-b][1,4]oxazin-8-yl)benzonitrile], the IC50 stood at 2 nM on human CYP11B1 and 0.04 nM on human CYP11B2.
